Test results reported in publication PMC3091354 (Journal of chromatography. B, Analytical technologies in …, 2011).
“And” between values parts separate entries of the source, which are not always exact repeats. Identical values can stand only once. Like-named read-outs stand apart in the source and are kept apart here.

Key:
[1] = type: in vivo; settings: mouse; for Tmax / MRT inf: male, C57BL/6N, ip
[2] = Stability of 3-MoSA in mouse brain homogenate to freezing; type: physicochemical; settings: storage 7 months at −80°C
[3] = system: cells; settings: all cells tested; cited from earlier work
[4] = type: in vivo; settings: mouse; for concentration at 1 week: male, C57BL/6N, oral; for Concentration in brain: 1 week
[5] = single i.p. 200 mg/kg, plasma, 200 mg/kg

COc1cccc(CN)c1O [3-MoSA, 3-methoxy-2-hydroxybenzylamine]
Tmax ([1]; brain, 200 mg/kg): 15 min
MRT inf ([1]; heart, 200 mg/kg): 54 min
Tmax ([1]; heart, 200 mg/kg): 15 min
MRT inf ([1]; kidney, 200 mg/kg): 54 min
Tmax ([1]; kidney, 200 mg/kg): 30 min
MRT inf ([1]; liver, 200 mg/kg): 60 min
Tmax ([1]; liver, 200 mg/kg): 15 min
Tmax ([1]; plasma, 200 mg/kg): 30 min
MRT inf ([1]; spleen, 200 mg/kg): 60 min
Tmax ([1]; spleen, 200 mg/kg): 15 min
Time to distribution to heart, spleen, liver and kidneys after administration ([1]; single i.p. 200 mg/kg): 15 to 30 min
Time of maximum brain concentration (CBmax) ([1]; single i.p. 200 mg/kg, brain): 15 min
Cmax, brain ([1]; single i.p. 200 mg/kg, brain, 200 mg/kg): 1395 ± 207 µg/g and 1395.3 ± 207.0 µg/g
AUC (0-t), heart ([1]; single i.p. 200 mg/kg, heart): 546.7 ± 52.4 µg·h/g
AUC (0-t), kidney ([1]; single i.p. 200 mg/kg, kidney): 1981.6 ± 174.0 µg·h/g
Cmax, kidney ([1]; single i.p. 200 mg/kg, kidney): 1703.1 ± 146.1 µg/g
AUC (0-t), liver ([1]; single i.p. 200 mg/kg, liver): 540.4 ± 37.1 µg·h/g
Cmax, liver ([1]; single i.p. 200 mg/kg, liver): 880.4 ± 122.3 µg/g
Drug accumulation over time in organs ([1]; single i.p. 200 mg/kg, organs studied): no evidence of specific drug accumulation over time
AUC (0-t), plasma [1, 5]: 361.5 ± 41.6 µg·h/mL
CL/F (total body clearance) [1, 5]: 544.1 L/h/kg
Cmax, plasma [1, 5]: 342600 ± 56400 ng/mL
Elimination t1/2, plasma [1, 5]: 36 min
V/F (apparent volume of distribution, Vd/F) [1, 5]: 486.4 L/kg
AUC (0-t), spleen ([1]; single i.p. 200 mg/kg, spleen): 734.5 ± 60.7 µg·h/g
Time after injection up to which 3-MoSA was detectable in tissue ([1]; single i.p. 200 mg/kg, tissue): up to 4 h
Stability: fraction recovered after storage [2]: 77% and 76.87%
Cytotoxicity [3]: not cytotoxic
concentration at 1 week ([4]; brain, 3 g/l, Concentration in brain, drink at 3 g/l): 18000 ng/g
concentration at 1 week ([4]; brain, 5 g/l, Concentration in brain, drink at 5 g/l): 25000 ng/g
concentration at 1 week ([4]; brain, 7 g/l, Concentration in brain, drink at 7 g/l): 38000 ng/g
concentration at 1 week ([4]; brain, 10 g/l, Concentration in brain, drink at 10 g/l): 82000 ng/g
concentration at 1 week ([4]; heart, 3 g/l, Concentration in heart, drink at 3 g/l): 23900 ± 6500 ng/g
concentration at 1 week ([4]; heart, 5 g/l, Concentration in heart, drink at 5 g/l): 46300 ± 6000 ng/g
concentration at 1 week ([4]; heart, 7 g/l, Concentration in heart, drink at 7 g/l): 53500 ± 8100 ng/g
concentration at 1 week ([4]; heart, 10 g/l, Concentration in heart, drink at 10 g/l): 60200 ± 8700 ng/g
concentration at 1 week ([4]; kidney, 3 g/l, Concentration in kidney, drink at 3 g/l): 91100 ± 16300 ng/g
concentration at 1 week ([4]; kidney, 5 g/l, Concentration in kidney, drink at 5 g/l): 155000 ± 20300 ng/g
concentration at 1 week ([4]; kidney, 7 g/l, Concentration in kidney, drink at 7 g/l): 210000 ± 13100 ng/g
concentration at 1 week ([4]; kidney, 10 g/l, Concentration in kidney, drink at 10 g/l): 212000 ± 17400 ng/g
concentration at 1 week ([4]; liver, 3 g/l, Concentration in liver, drink at 3 g/l): 74100 ± 11700 ng/g
concentration at 1 week ([4]; liver, 5 g/l, Concentration in liver, drink at 5 g/l): 204000 ± 22000 ng/g
concentration at 1 week ([4]; liver, 7 g/l, Concentration in liver, drink at 7 g/l): 252000 ± 24300 ng/g
concentration at 1 week ([4]; liver, 10 g/l, Concentration in liver, drink at 10 g/l): 259000 ± 26200 ng/g
concentration at 1 week ([4]; plasma, 3 g/l, Concentration in plasma, drink at 3 g/l): 4000 ± 1000 ng/mL
concentration at 1 week ([4]; plasma, 5 g/l, Concentration in plasma, drink at 5 g/l): 5400 ± 1100 ng/mL
concentration at 1 week ([4]; plasma, 7 g/l, Concentration in plasma, drink at 7 g/l): 10800 ± 1600 ng/mL
concentration at 1 week ([4]; plasma, 10 g/l, Concentration in plasma, drink at 10 g/l): 11500 ± 1200 ng/mL
concentration at 1 week ([4]; spleen, 3 g/l, Concentration in spleen, drink at 3 g/l): 46600 ± 7900 ng/g
concentration at 1 week ([4]; spleen, 5 g/l, Concentration in spleen, drink at 5 g/l): 82200 ± 7200 ng/g
concentration at 1 week ([4]; spleen, 7 g/l, Concentration in spleen, drink at 7 g/l): 185000 ± 11600 ng/g
concentration at 1 week ([4]; spleen, 10 g/l, Concentration in spleen, drink at 10 g/l): 192000 ± 23600 ng/g
Concentration in brain ([4]; drink at 3 g/l): 18.1 ± 4.4 µg of 3-MoSA/g of tissue
Concentration in brain ([4]; drink at 5 g/l): 24.7 ± 3.1 µg of 3-MoSA/g of tissue
Concentration in brain ([4]; drink at 7 g/l): 37.6 ± 0.8 µg of 3-MoSA/g of tissue
Concentration in brain ([4]; drink at 10 g/l): 82.3 ± 24.5 µg of 3-MoSA/g of tissue
